This is an account of results in PubChem BioAssay (NCI).

Test in all cases: growth of human tumour cells (NCI), 48 h
The subject of assay [1] is HOP-62 NSCLC.
Assay [2] has as its system MDA-MB-435.
The test system of assay [3] is NCI-H226 lung.
In assay [4] the test system is HL-60(TB) leukemia.
Assay [5] relates to RXF 393 renal.
In assay [6] the test system is HCT-116 colon.
Assay [7] deals with SK-OV-3 ovarian.
The subject of assay [8] is MALME-3M melanoma.
Assay [9] concerns NCI-H460 lung.
For assay [10], the system named is A498 renal.
The subject of assay [11] is MDA-MB-231 breast.
The test system of assay [12] is RPMI-8226 leukemia.
Assay [13] concerns HT29 colon.
The test system of assay [14] is BT-549 breast.

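Briefly, cells in 96-well plates were exposed to five compound concentrations for 48 h, and endpoints were estimated by linear interpolation. TGI marks complete inhibition of growth.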 Some results are limits rather than exact numbers.

For `C=CC[C@@]12CCC(=O)C=C1CCCC2=O`, the TGI in assay [1], in assay [2], in assay [3], in assay [4], in [5] and in assay [6] was > 100 µM each time. Further, the TGI in assay [7], in assay [8], in assay [9], in assay [10], in [11] and in assay [12] was > 100 µM in each case. Further, the TGI in [13] is > 100 µM.

As for `CC1(C)N([O-])[N+](=O)C1(Br)c1ccccc1` (stereo not given), the TGI in assay [1], in [2], in assay [3], in assay [4], in assay [5] and in assay [6] was > 100 µM throughout. Further, the TGI in [7], in [8], in assay [9], in [11], in assay [12] and in [13] was > 100 µM throughout.

As for `C/C(=C(/C)c1cc[n+](C)cc1)c1cc[n+](C)cc1`, the TGI in [1], in assay [4], in assay [5], in [6], in [7] and in [8] was > 75 µM each time. The TGI in assay [9], in assay [10], in assay [12] and in assay [13] was > 75 µM each time.

`Cn1nc(S(N)(=O)=O)s/c1=N/S(=O)(=O)c1ccc(N)cc1`: the TGI in assay [1], in assay [3], in assay [5], in [7], in assay [8] and in assay [9] was > 100 µM throughout. The TGI in assay [10], in assay [14], in assay [11], in [12] and in assay [13] was > 100 µM in each case.

With `COc1ccc(C(c2cc(OC)c(OC)c(OC)c2)N2C(=O)CCC2C(=O)O)cc1` (stereo not given), the TGI was > 100 µM in [1]; 48.6 µM in [2]; > 100 µM in assay [3]; > 100 µM in [4]; > 100 µM in assay [6]; > 100 µM in assay [7]. The TGI in [8], in assay [9], in [10], in [11], in [12] and in [13] was > 100 µM throughout.

With `[O-]/[N+](=N/c1ncc(-c2ccccc2)cn1)c1ncc(-c2ccccc2)cn1`, the TGI in assay [1], in assay [2], in assay [3], in [4], in assay [5] and in assay [6] was > 100 µM throughout. The TGI in [7], in assay [8], in assay [9], in [10], in [11] and in [12] was > 100 µM in each case. Besides, the TGI in assay [13] is > 100 µM.

As to `O=C1O/C(=C(/Cl)c2c3ccccc3cc3ccccc23)c2ccccc21`, the TGI came to 57.8 µM in assay [1]; 58 µM in assay [2]; 73.6 µM in [3]; 22.6 µM in [4]; 96.4 µM in [5]; 9.58 µM in [6]. For the same compound, the TGI is > 100 µM in assay [7]; > 100 µM in [8]; > 100 µM in assay [9]; 80.2 µM in assay [10]; 40.3 µM in [11]; 66.4 µM in assay [12]. In [13], this compound had a TGI of 43.1 µM.

In the case of `O=C(Nc1ccccc1[N+](=O)[O-])C(=O)C(C(=O)c1ccccc1-c1ccccc1)C1OC(=O)c2ccccc21` (stereo not given), the TGI in assay [1] was 36 µM; in [3], 21.3 µM; in assay [4] it was 47.6 µM; in assay [5], 25.9 µM; in [6], 38.4 µM; in [7], > 100 µM. For the same compound, the TGI in assay [8] worked out at 29.9 µM; in [9], 30.7 µM; in assay [10] it was 37.8 µM; in assay [12], 78.3 µM; in assay [13] it was 59.2 µM.

With `COc1ccc(-c2cc(=O)c3ccc(F)cc3[nH]2)cc1`, the TGI in [1], in assay [3], in assay [4], in assay [5], in assay [6] and in assay [7] was > 100 µM in each case. Besides, the TGI in [8], in [9], in assay [12] and in assay [13] was > 100 µM throughout.

On to `Cc1ccccc1C1CC(=O)CC(c2ccccc2C)C12C(=O)NC(=S)NC2=O` (stereo not given), for which the TGI in assay [1] was > 100 µM; in assay [2] it was 62.4 µM; in assay [3] it was 44.2 µM; in assay [4], 59.2 µM; in assay [5], 38.8 µM; in assay [6], 49 µM. Besides, the TGI is > 100 µM in assay [7]; 78.4 µM in [8]; 41.8 µM in assay [9]; 72.2 µM in assay [10]; 90.1 µM in [11]; 38.6 µM in [12]. The TGI in [13] was 54.3 µM.

As for `CC(=O)c1c2c(cc3c1CC1(C3)Cc3cc4c(c(C(C)=O)c3C1)CCCC4)CCCC2`, the TGI in assay [1] is > 100 µM; in assay [2] it was > 100 µM; in [3] it was > 100 µM; in assay [4], 40 µM; in assay [5], > 100 µM; in assay [6] it was > 100 µM. The TGI in assay [7], in assay [8], in assay [10], in assay [11], in [12] and in assay [13] was > 100 µM throughout.
